Assay results from US20140093558A1, “STABLE CRYSTAL MODIFICATIONS OF DOTAP CHLORIDE” (MERCK PATENT GMBH, priority 2011, published 2014).
Read-outs that look alike come from different tables or passages of the source.

Assays:
[1] = Hygroscopicity / handling properties; type: physicochemical; conditions: crystalline forms
[2] = Storage stability of crystalline DOTAP chloride, remaining content by HPLC; type: physicochemical; conditions: for remaining content of (2R,S)-DOTAP chloride (HPLC) / remaining content/purity of (2R,S)-DOTAP chloride (HPLC): exclusion of air; for stability values compared with crystalline (2R,S)-DOTAP chloride: storage as in Tables 1 and 1a
Description: In order to determine the stability of crystalline (2R,S)-DOTAP chloride, the substance is stored at 25° C. and 60% relative humidity (table 1) or at 40° C. and 75% relative humidity (table 1a) with exclusion of air. The remaining content of (2R,S)-DOTAP chloride is measured at periodic intervals and quoted in comparison to the initial value.
The purity and content of DOTAP chloride are determined by means of HPLC using the following method:
HPLC equipment: Agilent 1200 HPLC • column: ODS-3: 150×3 mm, 3 μm. GI Sciences: lnertsil • eluent A: 10 mM pentanesulfonic acid sodium salt in 0.085%ic aqueous H3PO4 • eluent B: 3.85 mM pentanesulfonic acid sodium salt in 94% acetonitrile containing 0.085%ic aqueous H3PO4
• runtime: 25 min • flow: 1.5 ml/min • pressure: ca. 220 bar • column temperature: 50° C. • injection volume: 10 μl
The stability determination can be repeated at any desired time, the values indicated in Tables 1 and 1a are reproducible.

[3] = Solubility in acetonitrile; type: physicochemical; conditions: room temperature
[4] = some in-vitro studies, compared with DOTAP chloride; cited from earlier work
[5] = amorphous form, normal atmospheric humidity levels; cited from earlier work
[6] = storage under protective gas at −20° C.; cited from earlier work
[7] = 25° C., 60% relative humidity, 0 months
[8] = 25° C., 60% relative humidity, 3 months
[9] = 25° C., 60% relative humidity, 6 months
[10] = 25° C., 60% relative humidity, 9 months
[11] = 25° C., 60% relative humidity, 12 months
[12] = 25° C., 60% relative humidity, 24 months
[13] = 25° C., 60% relative humidity, 36 months
[14] = 40° C., 75% relative humidity, 0 months
[15] = 40° C., 75% relative humidity, 3 months
[16] = 40° C., 75% relative humidity, 6 months
[17] = 40° C., 75% relative humidity, 9 months
[18] = 40° C., 75% relative humidity, 12 months

## CCCCCCCC/C=C\CCCCCCCC(=O)OCC(C[N+](C)(C)C)OC(=O)CCCCCCC/C=C\CCCCCCCC.[Cl-] (racemic) [(2R,S)-DOTAP chloride crystalline, (R,S)-1,2-dioleoyl-3-propyltrimethylammonium chloride]
[1]
  hygroscopicity: remarkably reduced hygroscopicity
[2]; [7]
  remaining content of (2R,S)-DOTAP chloride (HPLC): 99.5 % by weight
  remaining content/purity of (2R,S)-DOTAP chloride (HPLC): 99.7 Area-%
[2]; [8]
  remaining content of (2R,S)-DOTAP chloride (HPLC): 99.7 % by weight
  remaining content/purity of (2R,S)-DOTAP chloride (HPLC): 99.6 Area-%
[2]; [9]
  remaining content of (2R,S)-DOTAP chloride (HPLC): 99.4 % by weight
  remaining content/purity of (2R,S)-DOTAP chloride (HPLC): 99.5 Area-%
[2]; [10]
  remaining content of (2R,S)-DOTAP chloride (HPLC): 99.2 % by weight
  remaining content/purity of (2R,S)-DOTAP chloride (HPLC): 99.2 Area-%
[2]; [11]
  remaining content of (2R,S)-DOTAP chloride (HPLC): 99.5 % by weight
  remaining content/purity of (2R,S)-DOTAP chloride (HPLC): 99.5 Area-%
[2]; [12]
  remaining content of (2R,S)-DOTAP chloride (HPLC): 99.5 % by weight
  remaining content/purity of (2R,S)-DOTAP chloride (HPLC): 99.7 Area-%
[2]; [13]
  remaining content of (2R,S)-DOTAP chloride (HPLC): 99.7 % by weight
  remaining content/purity of (2R,S)-DOTAP chloride (HPLC): 99.3 Area-%
[2]; 25 ± 2° C., after 36 months
  degradation on storage: The above stability data confirms that crystalline DOTAP chloride is a stable substance. Even after 36-months no significant degradation was observed for the samples stored at 25 ± 2 °C
[2]; [14]
  remaining content of (2R,S)-DOTAP chloride (HPLC): 99.5 % by weight
  remaining content/purity of (2R,S)-DOTAP chloride (HPLC): 99.7 Area-%
[2]; [15]
  remaining content of (2R,S)-DOTAP chloride (HPLC): 99.6 % by weight
  remaining content/purity of (2R,S)-DOTAP chloride (HPLC): 99.6 Area-%
[2]; [16]
  remaining content of (2R,S)-DOTAP chloride (HPLC): 99.6 % by weight
  remaining content/purity of (2R,S)-DOTAP chloride (HPLC): 99.4 Area-%
[2]; [17]
  remaining content of (2R,S)-DOTAP chloride (HPLC): 98.9 % by weight
  remaining content/purity of (2R,S)-DOTAP chloride (HPLC): 99.3 Area-%
[2]; [18]
  remaining content of (2R,S)-DOTAP chloride (HPLC): 99.7 % by weight
  remaining content/purity of (2R,S)-DOTAP chloride (HPLC): 99.4 Area-%
[2]; accelerated conditions, 40 ± 2° C., after 12 months
  degradation on storage: The above stability data confirms that crystalline DOTAP Chloride is a stable substance. Even at accelerated conditions after 12-months no significant degradation was observed for the samples stored at 40 ± 2 °C
[2]; stored at 25° C. for 36 months
  stability determined by HPLC in relation to the starting value: higher than 99 % by weight and area-%
[2]; stored at 40° C. for 12 months
  stability determined by HPLC in relation to the starting value: higher than 99 % by weight and area-%
[3]
  solubility in acetonitrile: virtually insoluble

## CCCCCCCC/C=C\CCCCCCCC(=O)OCC(C[N+](C)(C)C)OC(=O)CCCCCCC/C=C\CCCCCCCC.COS(=O)(=O)[O-] (stereo not shown) [DOTAP methylsulfate]
[4]
  transfection rate: better transfection rates than DOTAP chloride

## CCCCCCCC/C=C\CCCCCCCC(=O)OCC(C[N+](C)(C)C)OC(=O)CCCCCCC/C=C\CCCCCCCC.[Cl-] (stereo not shown) [amorphous DOTAP chloride, 1,2-dioleoyloxy-3-trimethylammonium propane chloride]
[5]
  hygroscopicity: extremely hygroscopic
[6]
  shelf life guaranteed by the manufacturer: about 6 months

## (R)-1,2-dioleoyl-3-propyltrimethylammonium chloride [Crystalline (2R)-DOTAP chloride]
[1]
  hygroscopicity: remarkably reduced hygroscopicity
[2]
  stability values compared with crystalline (2R,S)-DOTAP chloride: Crystalline (2R)- and (2S)-DOTAP chloride show comparable stability values.

## (S)-1,2-dioleoyl-3-propyltrimethylammonium chloride [Crystalline (2S)-DOTAP chloride]
[1]
  hygroscopicity: remarkably reduced hygroscopicity
[2]
  stability values compared with crystalline (2R,S)-DOTAP chloride: Crystalline (2R)- and (2S)-DOTAP chloride show comparable stability values.
